In BindingDB's records for doi:10.1021/jm010992z (Pharmazeutisches Institut Der Universität Freiburg, 2002) one finds IC50 and Ki data, which are given here for six compounds.

As a reminder, the IC50 is the concentration at which inhibition is half-maximal. Low readings indicate inhibition by little substance, high ones a need for much substance. Broadly, the Ki is the equilibrium dissociation constant of an inhibitor or competing ligand from its target. A lower Ki goes with tighter binding.

The target in test [1] is Sodium-dependent dopamine transporter (Rattus norvegicus) (UniProt P23977). Briefly: The compound was tested for inhibition of dopamine reuptake.
Sequence of Sodium-dependent dopamine transporter (Rattus norvegicus) (P23977 whole entry, looked up): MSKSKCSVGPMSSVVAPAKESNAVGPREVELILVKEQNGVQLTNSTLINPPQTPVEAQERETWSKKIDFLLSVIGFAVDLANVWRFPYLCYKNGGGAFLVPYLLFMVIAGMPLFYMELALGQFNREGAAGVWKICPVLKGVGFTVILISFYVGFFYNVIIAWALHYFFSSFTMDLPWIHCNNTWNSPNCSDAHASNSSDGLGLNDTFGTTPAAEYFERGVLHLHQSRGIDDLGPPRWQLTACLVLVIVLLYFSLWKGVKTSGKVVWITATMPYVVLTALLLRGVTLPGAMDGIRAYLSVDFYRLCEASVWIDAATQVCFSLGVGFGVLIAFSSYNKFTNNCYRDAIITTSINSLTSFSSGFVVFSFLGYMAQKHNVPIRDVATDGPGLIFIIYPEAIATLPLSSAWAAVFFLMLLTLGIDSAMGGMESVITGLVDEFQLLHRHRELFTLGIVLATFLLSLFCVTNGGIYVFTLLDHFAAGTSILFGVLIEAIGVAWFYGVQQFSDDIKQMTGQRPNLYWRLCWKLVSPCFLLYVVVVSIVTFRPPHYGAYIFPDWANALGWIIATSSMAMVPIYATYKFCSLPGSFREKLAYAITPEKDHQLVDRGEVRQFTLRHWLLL
Test [2] in a line: Sigma opioid receptor type 2 affinity in rat liver by employing [3H]ditolylguanidine as radioligand.
Test [3] can be described thus: Sigma opioid receptor type 1 affinity in guinea pig brain by employing [3H](+)-pentazocine as radioligand.

In turn, `COC1Cc2ccccc2C2(CCN(CCCc3ccccc3)CC2)O1` (stereo not given) yielded an IC50 in test [1] of 1.6 µM.
On the same count and under the same terms, as for `COC1OC2(CCN(Cc3ccccc3)CC2)c2ccccc21` (stereo not given) [1'-benzyl-3-methoxyspiro[1,3-dihydroisobenzofuran-1,4'-(hexahydropyridine)]], the figure is greater than 10 µM.
Take `OC1Cc2ccccc2C2(CCN(CCc3ccccc3)CC2)O1` (stereo not given) [1'-phenethylspiro[3,4-dihydro-1H-isochromene-1,4'-(hexahydropyridine)]-3-ol]: the Ki in test [2] is 0.107 µM; in test [3] it was 0.044 µM.
The corresponding values for `COC1Cc2ccccc2C2(CCN(CCCCc3ccccc3)CC2)O1` (stereo not given) [1-[3-methoxyspiro[3,4-dihydro-1H-isochromene-1,4'-(hexahydropyridine)]-1-yl]-4-phenylbutane] are 0.311 µM and 0.01 µM.
The corresponding values for `COC1Cc2ccccc2C2(CCN(C/C=C/c3ccccc3)CC2)O1` (stereo not given) [3-[3-methoxyspiro[3,4-dihydro-1H-isochromene-1,4'-(hexahydropyridine)]-1-yl]-1-phenyl-(E)-1-propene] are 4 µM and 0.013 µM.
The corresponding values for `COC1Cc2ccccc2C2(CCN(C)CC2)O1` (stereo not given) [3-methoxy-1'-methylspiro[3,4-dihydro-1H-isochromene-1,4'-(hexahydropyridine)]] are greater than 10 µM and 4.4 µM.
